The term Kd denotes the equilibrium constant for the complex coming apart. The term IC50 denotes the midpoint of a concentration-inhibition curve.

These results are taken from US20250332300A1 (priority 2024, published 2025).

Structures can show the parent of a compound that is named as a salt. Where two headings read alike, the source gives them in different places. Starred links: 1 amine or outer side, 2 acyl side, 3 side chain; linkers in the order of their positions; H or OH if unused. Positions of bridges follow the written chain, without caps; N, C: chain ends. Non-standard residues stand in square brackets, D forms with d. Residues, ends and D or L forms follow the SMILES beside them. *: point of attachment. Trp(5-OH) = N[C@@H](Cc1c[nH]c2ccc(O)cc12)C(=O)O; X9 = CN([C@@H](CCc1cccc(Cl)c1)C(=O)[*:2])[*:1]; NMePhe(4-F) = CN[C@@H](Cc1ccc(F)cc1)C(=O)O; β2hAla(2S) = C[C@@H](CN[*:1])C(=O)[*:2]; NMehPhe = CN[C@@H](CCc1ccccc1)C(=O)O; NMeE = CN[C@@H](CCC(=O)O)C(=O)O; Aad = N[C@@H](CCCC(=O)O)C(=O)O; Gly(cPr) = N[C@H](C(=O)O)C1CC1; NMeK = CN[C@@H](CCCCN)C(=O)O; NMeDap = CN[C@@H](CN)C(=O)O; Tfa = O=C(C(F)(F)F)* Where only a bound is given, the exact number is not on record here.

In one assay the target is human HER2 (23-652) (Homo sapiens, UniProt P04626). The experiment in a line: Surface plasmon resonance (SPR) for assessment of peptide affinity, human HER2. The assay is classed as binding. On the set-up: towards human HER2 (23-652) and mouse HER2 (23-653); made in house. The method, then:
Each protein was immobilized either onto a SA sensorchip (Cytiva, BR-1005-31) or CM5 sensorchip (Cytiva, BR-1005-30) to a density of 800-2000 RU. […] For the assay setup the same conditions (flow rate, running buffer, peptide dilution) as described above were used. In a first step the Anti Fc IgG Ab (from Human Antibody Capture Kit, Ref. 29234600, Cytiva) was diluted into acetate pH 5.0 at 25 ug/mL and immobilized at a flow rate of 10 uL/min over 360 s to reach a density around 6000 RU. […] The peptides were tested with an association time of 280 s followed by a dissociation time of 3000 s at a flow rate of 30 uL/min. The regeneration was done using 3 M magnesium chloride regeneration solution as obtained with a contact time of 30 s at a flow rate of 10 uL/min. Curve fitting was performed using the BiacoreTM 8K evaluation software.

In another assay the target is mouse HER2 (23-653) (Mus musculus, UniProt P70424). As to the kind of experiment: TR-FRET competition assay for peptide potency, mouse HER2. The format is binding. The settings on record: TR-FRET competition with Cy5 labeled peptide probe, 0.1 nM mouse HER2, 24 h incubation; read-out: moHER2 TR-FRET IC50. On the set-up: mouse HER2 (23-653) using a Cy5 labeled peptide as a probe; made in house; host or cells: mammalian cells. The method, then: Both proteins containing a His-, Avi-tag and biotin in Nterminus, were expressed in mammalian cells and produced in house. […] Standard assay conditions consist of 20 uL total volume in white 384-well plates (Greiner), in 10 mM HEPES buffer containing 150 mM NaCl, 3 mM EDTA, 0.05% Tween20 and 1% final DMSO. […] The ratiometric FRET assay readout is calculated from the ratio of the raw data of the two distinct fluorescence signals measured in time resolved mode (fluorescence 665 nm/fluorescence 620 nm). IC50 values were calculated with the standard Novartis in-house assay data analysis software (Helios software application, Novartis Institutes for BioMedical Research, unpublished) using the methods described in Comput. Methods. Programs. Biomed. 2006, 82, 31-37 (regression algorithms for nonlinear dose-response curve fitting).
(In TR-FRET formats the signal depends on donor and acceptor labels being close together.)

[1] abbreviates: SPR, human HER2 extracellular domain, 25° C., 1:1 binding model, read-out: huHER2-SPR-ONC KD.

The compound `CC[N+]1=C(/C=C/C=C/C=C2/N(CCCCCC(=O)NCCCC[C@H](NC(=O)[C@H](Cc3ccc(F)cc3)N(C)C(=O)[C@@H]3CNC(=O)CC[C@H](NC(C)=O)C(=O)N[C@@H](Cc4ccc(O)cc4)C(=O)N[C@@H](CO)C(=O)N(C)[C@@H](CCc4ccccc4)C(=O)N(C)[C@@H](CCCCNC(C)=O)C(=O)N[C@@H](Cc4c[nH]c5ccc(O)cc45)C(=O)N[C@@H](Cc4c[nH]c5ccccc45)C(=O)N[C@@H]([C@H](C)O)C(=O)N3C)C(N)=O)c3ccc(S(=O)(=O)O)cc3C2(C)C)C(C)(C)c2cc(S(=O)(=O)O)ccc21` [Example D4] showed a Kd at human HER2 (23-652) of 0.4 nM.

Turning to `CC(=O)NCCCC[C@H]1C(=O)N[C@@H](Cc2c[nH]c3ccc(O)cc23)C(=O)N[C@@H](Cc2c[nH]c3ccccc23)C(=O)N[C@@H](C2CC2)C(=O)N(C)[C@H](C(=O)N(C)[C@@H](Cc2ccc(F)cc2)C(=O)N[C@@H](CCCCNC(=O)CN2CCN(CC(=O)O)CCN(CC(=O)O)CCN(CC(=O)O)CC2)C(N)=O)CNC(=O)CCC[C@H](NC(C)=O)C(=O)N[C@@H](Cc2ccc(O)cc2)C(=O)N[C@@H](CO)C(=O)N(C)[C@@H](CCc2ccccc2)C(=O)N1C` [Example C29], the IC50 at mouse HER2 (23-653) came to 0.2 nM.

As for `CC(=O)N[C@H]1CCCC(=O)NC[C@@H](C(=O)N(C)[C@@H](Cc2ccc(F)cc2)C(N)=O)N(C)C(=O)[C@H](C2CC2)NC(=O)[C@H](Cc2c[nH]c3ccccc23)NC(=O)[C@H](Cc2c[nH]c3ccc(O)cc23)NC(=O)[C@H](CCCCNC(=O)C(F)(F)F)N(C)C(=O)[C@H](CCc2ccccc2)N(C)C(=O)[C@H](CO)NC(=O)[C@H](Cc2ccc(O)cc2)NC1=O` [Example A4, (3S,6S,9S,12S,15S,18S,21S,24S,27S)-9-((1H-indol-3-yl)methyl)-27-acetamido-N-((S)-1-amino-3-(4-fluorophenyl)-1-oxopropan-2-yl)-6-cyclopropyl-12-((5-hydroxy-1H-indol-3-yl)methyl)-24-(4-hydroxybenzyl)-21-(hydroxymethyl)-N,4,16,19-tetramethyl-5,8,11,14,17,20,23,26,31-nonaoxo-18-phenethyl-15-(4-(2,2,2-trifluoroacetamido)butyl)-1,4,7,10,13,16,19,22,25-nonaazacyclohentriacontane-3-carboxamide] (Ac-[Aad]YS[NMehPhe][NMeK](Tfa)[Trp(5-OH)]W[Gly(cPr)][NMeDap][NMePhe(4-F)]-NH2; lactam 1-9), the Kd on human HER2 (23-652) (setting [1]) was determined as 8.9 nM. In addition, the IC50 on mouse HER2 (23-653) was determined as 29 nM.

`CC[N+]1=C(/C=C/C=C/C=C2/N(CCCCCC(=O)NCCOCCOCCOCCOCCOCCOCCOCCOCCOCCOCCC(=O)NCCCC[C@H](NC(=O)[C@H](Cc3ccc(F)cc3)N(C)C(=O)[C@@H]3CNC(=O)CCC[C@H](NC(C)=O)C(=O)N[C@@H](Cc4ccc(O)cc4)C(=O)N[C@@H](CO)C(=O)N(C)[C@@H](CCc4ccccc4)C(=O)N(C)[C@@H](CCCCNC(C)=O)C(=O)N[C@@H](Cc4c[nH]c5ccc(O)cc45)C(=O)N[C@@H](Cc4c[nH]c5ccccc45)C(=O)N[C@@H](C4CC4)C(=O)N3C)C(N)=O)c3ccc(S(=O)(=O)O)cc3C2(C)C)C(C)(C)c2cc(S(=O)(=O)[O-])ccc21` [Example D7]: at human HER2 (23-652), the Kd is below 0.1 nM.

For the compound `CC(=O)NCCCC[C@H]1C(=O)N[C@@H](Cc2c[nH]c3ccc(O)cc23)C(=O)N[C@@H](Cc2c[nH]c3ccccc23)C(=O)N[C@@H](C2CC2)C(=O)N(C)[C@H](C(=O)N(C)[C@@H](Cc2ccc(F)cc2)C(N)=O)CCC(=O)NC[C@H](C)C(=O)N[C@@H](Cc2ccc(O)cc2)C(=O)N[C@@H](CO)C(=O)N(C)[C@@H](CCc2ccccc2)C(=O)N1C` [Example A22, (3S,6S,9S,12S,15S,18S,21S,24S,30S)-6-((1H-indol-3-yl)methyl)-12-(4-acetamidobutyl)-N-((S)-1-amino-3-(4-fluorophenyl)-1-oxopropan-2-yl)-3-cyclopropyl-9-((5-hydroxy-1H-indol-3-yl)methyl)-21-(4-hydroxybenzyl)-18-(hydroxymethyl)-N,1,13,16,24-pentamethyl-2,5,8,11,14,17,20,23,27-nonaoxo-15-phenethyl-1,4,7,10,13,16,19,22,26-nonaazacyclotriacontane-30-carboxamide] ([β2hAla(2S)]YS[NMehPhe][NMeK](Ac)[Trp(5-OH)]W[Gly(cPr)][NMeE][NMePhe(4-F)]-NH2; lactam N-9), the Kd on human HER2 (23-652) (setting [1]) amounted to 9.7 nM. For the same compound, the IC50 on mouse HER2 (23-653) is 9.9 nM.

For `CC[N+]1=C(/C=C/C=C/C=C2/N(CCCCCC(=O)NCCOCCOCCOCCOCCOCCOCCOCCOCCOCCOCCC(=O)N[C@H]3CCCC(=O)NC[C@@H](C(=O)N(C)[C@@H](Cc4ccc(F)cc4)C(=O)N[C@@H](CCCCNC(=O)CN4CCN(CC(=O)O)CCN(CC(=O)O)CCN(CC(=O)O)CC4)C(N)=O)N(C)C(=O)[C@H](C4CC4)NC(=O)[C@H](Cc4c[nH]c5ccccc45)NC(=O)[C@H](Cc4c[nH]c5ccc(O)cc45)NC(=O)[C@H](CCCCNC(C)=O)N(C)C(=O)[C@H](CCc4ccccc4)N(C)C(=O)[C@H](CO)NC(=O)[C@H](Cc4ccc(O)cc4)NC3=O)c3ccc(S(=O)(=O)O)cc3C2(C)C)C(C)(C)c2cc(S(=O)(=O)[O-])ccc21` [Example D6], on human HER2 (23-652) (setting [1]), the Kd was found to be 0.1 nM.

As for `CC(=O)N[C@H]1CCCC(=O)NC[C@@H](C(=O)N(C)[C@@H](Cc2ccc(F)cc2)C(=O)N[C@@H](CCCCNC(=O)CN2CCN(CC(=O)O)CCN(CC(=O)O)CCN(CC(=O)O)CC2)C(N)=O)N(C)C(=O)[C@H]([C@H](C)O)NC(=O)[C@H](Cc2c[nH]c3ccccc23)NC(=O)[C@H](Cc2c[nH]c3ccc(O)cc23)NC(=O)[C@H](CCCCNC(=O)CCO)N(C)C(=O)[C@H](CCc2ccccc2)N(C)C(=O)[C@H](CO)NC(=O)[C@H](Cc2ccc(O)cc2)NC1=O` [Example C22], the Kd at human HER2 (23-652) (setting [1]) came out at 0.5 nM.

For `CC(=O)NCCCC[C@H]1C(=O)N[C@@H](Cc2c[nH]c3ccc(O)cc23)C(=O)N[C@@H](Cc2c[nH]c3ccccc23)C(=O)N[C@@H](C2CC2)C(=O)N(C)[C@H](C(=O)N(C)[C@@H](Cc2ccc(F)cc2)C(N)=O)CNC(=O)CCC[C@H](NC(C)=O)C(=O)N[C@@H](Cc2ccc(O)cc2)C(=O)N[C@@H](CO)C(=O)N(C)[C@@H](CCc2cccc(Cl)c2)C(=O)N1C` [Example A8, (3S,6S,9S,12S,15S,18S,21S,24S,27S)-9-((1H-indol-3-yl)methyl)-27-acetamido-15-(4-acetamidobutyl)-N-((S)-1-amino-3-(4-fluorophenyl)-1-oxopropan-2-yl)-18-(3-chlorophenethyl)-6-cyclopropyl-12-((5-hydroxy-1H-indol-3-yl)methyl)-24-(4-hydroxybenzyl)-21-(hydroxymethyl)-N,4,16,19-tetramethyl-5,8,11,14,17,20,23,26,31-nonaoxo-1,4,7,10,13,16,19,22,25-nonaazacyclohentriacontane-3-carboxamide] (Ac-[Aad]YS[X9][NMeK](Ac)[Trp(5-OH)]W[Gly(cPr)][NMeDap][NMePhe(4-F)]-NH2; lactam 1-9), the Kd at human HER2 (23-652) (setting [1]) is 1 nM. On mouse HER2 (23-653), the IC50 turned out to be 2.3 nM.

For `CC[N+]1=C(/C=C/C=C/C=C2/N(CCCCCC(=O)NCCCC[C@H](NC(=O)[C@H](Cc3ccc(F)cc3)N(C)C(=O)[C@@H]3CNC(=O)CCC[C@H](NC(C)=O)C(=O)N[C@@H](Cc4ccc(O)cc4)C(=O)N[C@@H](CO)C(=O)N(C)[C@@H](CCc4ccccc4)C(=O)N(C)[C@@H](CCCCNC(C)=O)C(=O)N[C@@H](Cc4c[nH]c5ccc(O)cc45)C(=O)N[C@@H](Cc4c[nH]c5ccccc45)C(=O)N[C@@H](C4CC4)C(=O)N3C)C(N)=O)c3ccc(S(=O)(=O)O)cc3C2(C)C)C(C)(C)c2cc(S(=O)(=O)[O-])ccc21` [Example D1], on human HER2 (23-652) (setting [1]), the Kd is below 0.1 nM.
